Assay results reported in paper PMC6287396, “Hyperactivation of Oncogenic JAK3 Mutants Depend on ATP Binding to the Pseudokinase Domain” (Frontiers in Oncology, 2018).

Key:
JAK3 JH2 [1] = molecular target: T1, JAK3 JH2 (Homo sapiens, UniProt P52333); experiment: Differential scanning fluorimetry (thermal shift); format: binding; details: for Effect of nucleotide on Tm (ΔTm): JAK3 JH2, nucleotide titration 0.2, 0.5, 1 mM
T1 construct: JAK3 JH2 (residues 511–790) was cloned into the pFASTBAC1 vector (Invitrogen) with a C-terminal His6 tag; His6 (C); made in house; host or cells: Spodoptera frugiperda (Sf9) insect cells, baculovirus (pFASTBAC1)
T1 sequence (P52333 511-790): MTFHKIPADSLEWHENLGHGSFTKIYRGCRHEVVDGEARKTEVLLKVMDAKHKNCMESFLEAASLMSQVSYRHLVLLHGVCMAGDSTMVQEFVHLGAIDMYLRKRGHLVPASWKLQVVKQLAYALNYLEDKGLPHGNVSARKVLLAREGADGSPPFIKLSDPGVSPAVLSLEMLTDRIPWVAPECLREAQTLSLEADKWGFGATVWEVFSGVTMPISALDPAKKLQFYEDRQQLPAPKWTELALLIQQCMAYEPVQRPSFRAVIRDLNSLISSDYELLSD
Experimental: (§1) Protein concentration of 3 μM was used for the measurement of the melting temperature (Tm). Reactions were done in the buffer used in the SEC. Addition of other components (ATP, salts) were taken into account by including 2X buffer, if needed. Signal arising from the fluorescent dye Life Technologies SYPRO^TM Orange Protein Gel Stain, 4X working solution from 5000X concentrate in DMSO) was measured with a conventional Real-Time PCR system (Bio-Rad CFX), 1°C per min from 4 to 96°C. Results were transferred and normalized in Microsoft Excel and the Tm was derived from the sigmoidal function using GraphPad Prism version 5.02 for Windows, GraphPad Software, La Jolla California USA, https://www.graphpad.com/.

TYK2 JH2 [2] = system: T2, TYK2 JH2; experiment: Differential scanning fluorimetry (thermal shift); format: binding
T2 construct: TYK2 JH2 564-876-His proteins; His (C)
Experimental: as §1

JAK2 JH2 [3] = system: T3, JAK2 JH2; experiment: Differential scanning fluorimetry (thermal shift); format: binding
T3 construct: JAK2 JH2 503-827-His; His (C)
Experimental: as §1

JAK1 JH2 [4] = system: T4, JAK1 JH2; experiment: Differential scanning fluorimetry (thermal shift); format: binding; details: JAK1 JH2, 1 mM ATP
T4 construct: Recombinant JAK1 JH2 553-836-His; His (C)
Experimental: as §1

TYK2 JH2 564-876-His = molecular target: T5, TYK2 JH2 564-876-His (Homo sapiens, UniProt P29597); experiment: Fluorescence polarization competition assay (ATP vs Bodipy FL JNJ-7706621 tracer); format: binding; details: TYK2 JH2, ATP competing with tracer, with MgCl2
T5 construct: TYK2 JH2 564-876-His proteins; His (C)
Experimental: (§2) Fluorescence polarization measurements were performed in black 384-well plates (ProxiPlate-384 F Plus, PerkinElmer) at sample volume of 5 μl/well on PerkinElmer Envision plate reader using 480 nm excitation and 535 nm emission filters. Fluorescent tracer, Bodipy FL labeled JNJ-7706621 [compound 5 in ([35])] was used at 1.5 nM concentration. Recombinant JAK1 JH2 553-836-His, JAK2 JH2 503-827-His, JAK3 JH2 511-790-His, and TYK2 JH2 564-876-His proteins were used at concentrations (2 nM JAK1, 150 nM JAK2, 1 μM JAK3, 20 nM TYK2) dependent on protein-tracer dissociation constants. The assays were performed in a buffer consisting of 20 mM Tris-HCl pH 8.0, 150 mM NaCl, 20% glycerol, 0.01% Brij-35, and 2 mM DTT. ATP was titrated at concentration range of 5 nM−5 μM and fluorescence polarization values obtained were fitted against log[ATP] in GraphPad Prism to yield IC50 values. Assays were performed in triplicate.

JAK3 JH2 511-790-His = molecular target: T6, JAK3 JH2 511-790-His (Homo sapiens, UniProt P52333); experiment: as above; format: binding; details: JAK3 JH2, ATP competing with tracer, no MgCl2 added
T6 construct: JAK3 JH2 (residues 511–790) was cloned into the pFASTBAC1 vector (Invitrogen) with a C-terminal His6 tag; His6 (C); made in house; host or cells: Spodoptera frugiperda (Sf9) insect cells, baculovirus (pFASTBAC1)
T6 sequence (P52333 511-790): T1 sequence (P52333 511-790)
Experimental: as §2

JAK1 JH2 553-836-His = molecular target: T7, JAK1 JH2 553-836-His (Homo sapiens, UniProt P23458); experiment: as above; format: binding; details: JAK1 JH2, ATP competing with tracer, with MgCl2
T7 construct: Recombinant JAK1 JH2 553-836-His; His (C)
Experimental: as §2

JAK2 JH2 503-827-His = molecular target: T8, JAK2 JH2 503-827-His (Homo sapiens, UniProt O60674); experiment: as above; format: binding; details: JAK2 JH2, ATP competing with tracer, with MgCl2
T8 construct: JAK2 JH2 503-827-His; His (C)
Experimental: as §2

JAK2 JH2 [5] = molecular target: T3, JAK2 JH2; parameters: method as in PMID 25825724; details: JAK2 JH2, with MgCl2; read-out: Kd (MANT-ATP); cited from earlier work
JAK1 JH2 [6] = molecular target: T4, JAK1 JH2; parameters: method as in PMID 25825724; details: JAK1 JH2, with MgCl2; read-out: Kd (MANT-ATP); cited from earlier work
JAK3 JH2 [7] = molecular target: T1, JAK3 JH2; experiment: MANT-ATP binding assay (steady-state FRET)
Experimental: The steady-state fluorescence of MANT-labeled ATP was measured as described in Mysore et al. ([34]). Briefly, the fluorescently labeled MANT (2′/3′-(N-methyl-anthraniloyl)-ATP was titrated against 1.5 μM recombinant JAK3 JH2. In addition, the protein was titrated as 0, 0.05, 0.25, 1.25, and […] against 0.25 μM MANT-ATP. FRET signal was measured with QuantaMaster PTI Fluorometer and the data was analyzed using GraphPad Prism version 5.02 and Microsoft Excel. Protein titrations were done in duplicate and in MANT-ATP titration in triplicate.

TYK2 JH2 [8] = molecular target: T2, TYK2 JH2; parameters: method as in PMID 26359499; details: TYK2 JH2, with MgCl2; read-out: Kd (MANT-ATP); cited from earlier work

T8 sequence (O60674 503-827): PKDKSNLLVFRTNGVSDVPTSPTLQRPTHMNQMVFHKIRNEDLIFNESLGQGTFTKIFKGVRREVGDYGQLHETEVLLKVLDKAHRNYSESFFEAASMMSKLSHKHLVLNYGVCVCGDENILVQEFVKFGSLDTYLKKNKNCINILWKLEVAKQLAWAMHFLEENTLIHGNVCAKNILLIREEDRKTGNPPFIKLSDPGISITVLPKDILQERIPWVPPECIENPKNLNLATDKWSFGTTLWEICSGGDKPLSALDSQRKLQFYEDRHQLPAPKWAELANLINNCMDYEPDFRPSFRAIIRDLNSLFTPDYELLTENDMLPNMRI
T7 sequence (P23458 553-836): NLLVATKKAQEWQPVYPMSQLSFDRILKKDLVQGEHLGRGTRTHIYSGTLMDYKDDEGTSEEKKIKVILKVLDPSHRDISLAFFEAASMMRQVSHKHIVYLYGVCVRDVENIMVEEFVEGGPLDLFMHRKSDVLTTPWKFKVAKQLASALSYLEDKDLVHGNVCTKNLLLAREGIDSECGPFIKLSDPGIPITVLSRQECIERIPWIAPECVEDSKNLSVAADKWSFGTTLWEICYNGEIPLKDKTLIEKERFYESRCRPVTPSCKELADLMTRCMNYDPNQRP
T5 sequence (P29597 564-876): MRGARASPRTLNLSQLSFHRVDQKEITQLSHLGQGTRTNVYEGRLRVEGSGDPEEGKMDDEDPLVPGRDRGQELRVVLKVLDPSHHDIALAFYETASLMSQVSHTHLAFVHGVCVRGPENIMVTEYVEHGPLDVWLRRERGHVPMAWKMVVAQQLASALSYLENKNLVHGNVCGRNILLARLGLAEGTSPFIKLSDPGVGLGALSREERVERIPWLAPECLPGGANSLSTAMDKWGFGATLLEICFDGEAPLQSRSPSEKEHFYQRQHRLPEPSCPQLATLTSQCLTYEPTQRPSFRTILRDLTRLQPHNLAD

With Nc1ncnc2c1ncn2[C@@H]1O[C@H](COP(=O)(O)OP(=O)(O)O)[C@@H](O)[C@H]1O [ADP] as the compound, how does the “Effect of nucleotide on Tm (ΔTm)” value (JAK3 JH2 [1]) read?
Its value is “significantly reduced ΔTm compared to ATP”.

Which “ΔTm (1 mM ATP)” value (TYK2 JH2 [2]; TYK2 JH2, 1 mM ATP) does the source give for Nc1ncnc2c1ncn2[C@@H]1O[C@H](COP(=O)(O)OP(=O)(O)OP(=O)(O)O)[C@@H](O)[C@H]1O [ATP] here?
Its value is 0.9 °C.

What about the TmATP (TYK2 JH2 [2]; melting temperature of TYK2 JH2 with ATP) of the same compound?
Its TmATP is 48 °C.

And the “ΔTm (1 mM ATP)” value (JAK2 JH2 [3]; JAK2 JH2, 1 mM ATP)?
The value was 4.9 °C.

And the TmATP (JAK2 JH2 [3]; melting temperature of JAK2 JH2 with ATP)?
Its TmATP is 46 °C.

What about the “ΔTm (1 mM ATP)” value (JAK1 JH2 [4]) of the same compound?
The value was 3.9 °C.

What about the Kd (JAK3 JH2 [1]; 50 nM−1 mM ATP titrated to 3 μM JAK3 JH2, read-out: Kd approximated with DSF) of the same compound?
Its Kd is 40.4 ± 97.1 µM.

And the ΔTm (JAK3 JH2 [1]; JAK3 JH2, 0.2 mM ATP)?
The ΔTm was 8 °C.

What about the TmATP (JAK3 JH2 [1]; melting temperature of JAK3 JH2 with ATP) of the same compound?
Its TmATP is 41 °C.

And the IC50 (TYK2 JH2 564-876-His)?
The IC50 was 471 µM.

And the IC50 (JAK3 JH2 511-790-His)?
Its IC50 is 16 µM.

What about the IC50 (JAK1 JH2 553-836-His) of the same compound?
Its IC50 is 110 µM.

And the IC50 (JAK2 JH2 503-827-His)?
Its IC50 is 102 µM.

Which Kd (JAK2 JH2 [5]) does the source give for “2′/3′-(N-methyl-anthraniloyl)-ATP [MANT-ATP]” here?
The Kd was 1.3 µM.

And the Kd (JAK1 JH2 [6])?
The Kd was 3.1 µM.

And the “fold tighter MANT-ATP binding of JAK3 JH2 compared to JAK1 JH2” value (JAK3 JH2 [7]; JAK3 JH2 vs JAK1 JH2)?
Its value is 6 fold.

And the “fold tighter MANT-ATP binding of JAK3 JH2 compared to JAK2 JH2” value (JAK3 JH2 [7]; JAK3 JH2 vs JAK2 JH2)?
The value was 3 fold.

What about the “fold tighter MANT-ATP binding of JAK3 JH2 compared to TYK2 JH2” value (JAK3 JH2 [7]; JAK3 JH2 vs TYK2 JH2) of the same compound?
Its value is 30 fold.

And the Kd (TYK2 JH2 [8])?
The Kd was 15 µM.

For Nc1ncnc2c1ncn2[C@@H]1O[C@H](COP(=O)(O)O)[C@@H](O)[C@H]1O [AMP], which “Effect of nucleotide on Tm (ΔTm)” value (JAK3 JH2 [1]) is on record?
Its value is “no effect on Tm”.
